Values joined by “and” are separate entries in the source; they are usually repeats but may differ in a detail not shown here. Equal entries are not always repeated. Where two headings read alike, the source gives them in different places.
Legend:
[1] = target: T1, hM1 (Homo sapiens, UniProt P11229); assay: Competitive [3H]NMS radioligand binding, CHO-hM1 cell membranes
T1 construct: host or cells: CHO-K1, stably transfected
T1 sequence (P11229 1-460): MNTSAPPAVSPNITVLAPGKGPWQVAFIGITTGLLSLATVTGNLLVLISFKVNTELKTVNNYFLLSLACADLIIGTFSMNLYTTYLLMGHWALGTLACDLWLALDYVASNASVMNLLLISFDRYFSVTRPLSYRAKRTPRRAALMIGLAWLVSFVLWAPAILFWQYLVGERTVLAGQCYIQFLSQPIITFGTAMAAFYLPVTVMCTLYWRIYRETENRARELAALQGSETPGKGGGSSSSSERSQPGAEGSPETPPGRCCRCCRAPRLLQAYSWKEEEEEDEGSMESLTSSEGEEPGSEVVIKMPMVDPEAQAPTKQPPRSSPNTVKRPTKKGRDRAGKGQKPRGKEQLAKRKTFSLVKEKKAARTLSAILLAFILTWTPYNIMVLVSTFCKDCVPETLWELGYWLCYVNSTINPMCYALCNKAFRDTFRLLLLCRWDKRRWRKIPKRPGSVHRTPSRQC
Method: (§1) We first assessed the carbamates’ affinities for human muscarinic acetylcholine receptors subtypes hM1–5 by means of a competitive radioligand binding assay displacing [N-methyl-^3H]scopolamine methyl chloride ([^3H]NMS) in cell membranes expressing the individual receptors.
(§2) Cell membranes bearing hM1-hM5 receptors were prepared as described previously. Briefly, stably transfected CHO-K1 cells were grown to at least 80% confluency in T175 flasks, washed with ice-cold DPBS, and scraped into a mixture of ice-cold of 2 mL 10 mM Tris-HCl, 1 mM EDTA-buffer, pH 7.4 and 200 µL protease inhibitor. A cell homogenate was prepared by passing the cell suspension through a G29 needle. The cell homogenates corresponding to two T175 flasks were combined and subsequently centrifuged (10 min, 1000 × g, 4 °C). Ultracentrifugation of the supernatant (1 h, 100,000 × g, 4 °C) yielded a membrane pellet, which was suspended in 250 µL 50 mM Tris-HCl buffer, pH 7.4 and stored at −80 °C.
(§3) Maximum binding was measured by using 5 µL DMSO, and nonspecific binding was measured by using 5 µL of 1 µM scopolamine in DMSO. […] The membrane-bound radioactivity was recovered by filtration through Whatman™ GF/B glass fibre filters pre-soaked in aqueous 0.1% PEI using an M-36 tygon tubed cell harvester (Brandel®, Gaithersburg, MD, USA). Membranes were washed 3 times with ice-cold washing buffer (50 mM Tris, pH 7.4) before being dried, transferred to 2 mL scintillation cocktail (UltimaGold™, high flashpoint LSC cocktail, PerkinElmer, Waltham, MA, USA) and counted in a β -counter (Hidex TDCR Liquid Scintillation Counter in CPM mode). IC50 values were calculated by a variable slope logistic regression using at least five distinct concentrations of test compounds, pipetted in triplicates.

[2] = target: T2, hM2 (Homo sapiens, UniProt P08172); assay: Competitive [3H]NMS radioligand binding, CHO-hM2 cell membranes; conditions: for Ki: read-out: Affinity: Ki ± SD, hM2
T2 construct: host or cells: CHO-K1, stably transfected
T2 sequence (P08172 1-466): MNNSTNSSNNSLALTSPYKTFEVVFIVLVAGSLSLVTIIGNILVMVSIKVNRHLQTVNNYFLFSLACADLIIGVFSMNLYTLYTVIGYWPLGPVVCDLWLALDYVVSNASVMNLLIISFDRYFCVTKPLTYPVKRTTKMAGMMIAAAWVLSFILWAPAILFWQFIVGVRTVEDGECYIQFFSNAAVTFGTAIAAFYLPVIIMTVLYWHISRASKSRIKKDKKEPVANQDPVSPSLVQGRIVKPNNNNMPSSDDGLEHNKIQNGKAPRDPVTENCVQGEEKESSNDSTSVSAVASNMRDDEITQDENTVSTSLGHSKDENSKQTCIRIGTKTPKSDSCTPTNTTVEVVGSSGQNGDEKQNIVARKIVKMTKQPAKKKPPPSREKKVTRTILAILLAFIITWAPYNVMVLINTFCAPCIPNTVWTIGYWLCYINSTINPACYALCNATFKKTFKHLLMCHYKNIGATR
Method: as §1, §2, §3

[3] = target: T3, hM3 (Homo sapiens, UniProt P20309); assay: Competitive [3H]NMS radioligand binding, CHO-hM3 cell membranes; conditions: for Ki: read-out: Affinity: Ki ± SD, hM3
T3 construct: host or cells: CHO-K1, stably transfected
Method: as §1, §2, §3

[4] = target: T4, hM4 (Homo sapiens, UniProt P08173); assay: Competitive [3H]NMS radioligand binding, CHO-hM4 cell membranes
T4 construct: host or cells: CHO-K1, stably transfected
T4 sequence (P08173 1-479): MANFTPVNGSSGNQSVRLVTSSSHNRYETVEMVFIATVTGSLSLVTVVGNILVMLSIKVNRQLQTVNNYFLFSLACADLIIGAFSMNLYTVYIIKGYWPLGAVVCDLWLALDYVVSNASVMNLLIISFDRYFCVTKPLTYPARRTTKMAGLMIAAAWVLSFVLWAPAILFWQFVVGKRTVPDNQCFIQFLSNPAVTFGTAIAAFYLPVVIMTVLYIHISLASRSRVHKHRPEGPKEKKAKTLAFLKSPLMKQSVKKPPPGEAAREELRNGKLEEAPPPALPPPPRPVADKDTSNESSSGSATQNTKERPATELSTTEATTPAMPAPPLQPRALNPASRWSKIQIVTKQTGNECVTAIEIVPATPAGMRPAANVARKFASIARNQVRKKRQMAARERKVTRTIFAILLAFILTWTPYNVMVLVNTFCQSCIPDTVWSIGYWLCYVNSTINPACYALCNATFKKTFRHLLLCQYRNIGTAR
Method: as §1, §2, §3

[5] = target: T5, hM5 (Homo sapiens, UniProt P08912); assay: Competitive [3H]NMS radioligand binding, CHO-hM5 cell membranes
T5 construct: host or cells: CHO-K1, stably transfected
T5 sequence (P08912 1-532): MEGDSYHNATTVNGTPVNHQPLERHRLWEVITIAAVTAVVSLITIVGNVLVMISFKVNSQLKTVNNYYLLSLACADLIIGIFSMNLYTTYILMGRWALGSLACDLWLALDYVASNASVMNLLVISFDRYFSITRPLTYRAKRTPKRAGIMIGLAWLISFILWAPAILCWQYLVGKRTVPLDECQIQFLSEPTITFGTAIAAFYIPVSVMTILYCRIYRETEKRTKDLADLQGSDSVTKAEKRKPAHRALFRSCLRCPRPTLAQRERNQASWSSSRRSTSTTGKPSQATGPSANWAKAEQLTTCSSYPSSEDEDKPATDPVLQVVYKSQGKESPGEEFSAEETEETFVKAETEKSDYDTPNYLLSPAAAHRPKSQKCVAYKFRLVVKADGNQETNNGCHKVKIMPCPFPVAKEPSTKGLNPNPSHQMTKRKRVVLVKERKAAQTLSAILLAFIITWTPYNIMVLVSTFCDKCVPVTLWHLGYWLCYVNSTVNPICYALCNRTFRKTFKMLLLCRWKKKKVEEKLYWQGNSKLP
Method: as §1, §2, §3

[6] = High throughput HPLC-logD (lipophilicity); conditions: pH 7.4
Method: Briefly, a mixture of toluene (≥98%, Sigma-Aldrich, St. Louis, MO, USA) and triphenylene (≥99.9%, Carl Roth, Karlsruhe, Germany) was used as internal standard. Each sample was dissolved in the internal standard mixture. Using gradient elution, the injection volume was set to 7 µL, the flow rate was 1.5 mL/min, and the mobile phase consisted of a mixture of methanol and 0.01 M sodium phosphate buffer pH 7.4. The HPLC-logD values were derived from the measured retention times following the previously published equation [27, 30].

[7] = Stability in fully supplemented RPMI1640 cell culture medium; format: in vitro ADME; conditions: fully supplemented RPMI1640, ambient temperature, after 24 h
Method: Since the decomposition in cell culture medium of compounds designated for biological testing could impair potential assay readouts, the stabilities of one tertiary carbamate (3) and one secondary carbamate (7) were investigated as representatives for the compound set 1–12. Gratifyingly, the rate of decomposition in fully supplemented RPMI1640 cell culture medium at ambient temperature has been fairly slow, with > 95% of both compounds remaining intact after 24 h (Supplementary Materials, Figure S3). Such stability is adequate with the requirements for carbon-11 labelled PET tracers of around 2–3 half-lives.
The stabilities of 3 and 7 were measured using the HPLC gradient method as described for the purity determination. 4 µL of a test compound’s stock solution in DMSO was diluted with fully supplemented RPMI1640 cell culture medium (10% FBS, 1% L-glutamine, without antibiotics). The stability was measured at ambient temperature and the column oven was set to 20 °C. The samples were measured at 0, 30, 60, 120 min and 24 h.

[8] = inhibition of [3H]NMS binding, CHO-hM1 membranes, read-out: Affinity: Ki ± SD, hM1
[9] = inhibition of [3H]NMS binding, CHO-hM4 membranes, read-out: Affinity: Ki ± SD, hM4
[10] = inhibition of [3H]NMS binding, CHO-hM5 membranes, read-out: Affinity: Ki ± SD, hM5

T3 sequence (P20309 whole entry): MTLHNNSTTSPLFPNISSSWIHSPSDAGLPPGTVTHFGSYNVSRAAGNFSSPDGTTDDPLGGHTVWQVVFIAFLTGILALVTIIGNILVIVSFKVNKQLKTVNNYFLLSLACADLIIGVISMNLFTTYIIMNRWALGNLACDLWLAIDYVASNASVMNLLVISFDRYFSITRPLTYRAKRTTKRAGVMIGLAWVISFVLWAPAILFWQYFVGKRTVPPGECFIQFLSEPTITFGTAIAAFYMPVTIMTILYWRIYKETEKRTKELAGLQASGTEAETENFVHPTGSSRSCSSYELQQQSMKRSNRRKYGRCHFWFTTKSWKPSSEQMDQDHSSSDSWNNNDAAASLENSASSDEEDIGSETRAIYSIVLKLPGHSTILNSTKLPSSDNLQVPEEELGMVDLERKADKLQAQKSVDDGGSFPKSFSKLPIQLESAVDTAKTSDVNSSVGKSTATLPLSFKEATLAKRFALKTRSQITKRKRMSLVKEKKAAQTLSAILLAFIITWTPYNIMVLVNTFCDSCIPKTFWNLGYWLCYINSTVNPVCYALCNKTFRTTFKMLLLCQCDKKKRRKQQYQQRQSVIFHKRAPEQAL

Row | Structure (SMILES) | Ki [1, 8] [nM] | Ki [2] [nM] | Ki [3] [nM] | Ki [4, 9] [nM] | Ki [5, 10] [nM] | chromatographic logD [6] | Compound remaining intact in cell culture medium [7] [%] | Ki [1] [nM] | Ki [4] [nM] | Ki [5] [nM] | x-Fold selectivity for hM1 vs. hM2 ([2]; ratio of Ki values hM2/hM1) [fold] | x-Fold selectivity for hM1 vs. hM3 ([3]; ratio of Ki values hM3/hM1) [fold] | x-Fold selectivity for hM1 vs. hM4 ([4]; ratio of Ki values hM4/hM1) [fold] | x-Fold selectivity for hM1 vs. hM5 ([5]; ratio of Ki values hM5/hM1)
1 | CN1CCN(C(=O)OC(c2ccc(F)cc2)c2ccc(F)cc2)CC1 [Compound 1, Bis(4-fluorophenyl)methyl 4-methylpiperazine-1-carboxylate] | 15.2 ± 3.6 | > 1000 | 226 ± 85.2 | 54.8 ± 20.5 | 50.6 ± 3.9 | 3.16 ± 0.01 | – | – | – | – | – | – | – | –
2 | CN1CCCN(C(=O)OC(c2ccc(F)cc2)c2ccc(F)cc2)CC1 [Compound 2, Bis(4-fluorophenyl)methyl 4-methyl-1,4-diazepane-1-carboxylate] | 1.2 ± 0.4 | 227 ± 85.9 | 28.4 ± 10.7 | 14.4 ± 5.5 | 4.8 ± 1.6 | 3.2 ± 0.02 | – | – | – | – | – | – | – | –
3 | CN1CC2CC1CN2C(=O)OC(c1ccc(F)cc1)c1ccc(F)cc1 (centres unmarked) [Compound 3, Bis(4-fluorophenyl)methyl5-methyl-2,5-diazabicyclo[2.2.1]heptane-2-carboxylate] | 33.1 ± 8.1 | > 1000 | 358 ± 83 | 115 ± 51 | 68 ± 22.1 | 2.69 ± 0.01 | > 95 | – | – | – | – | – | – | –
4 | CN1[C@@H]2CC[C@H]1CN(C(=O)OC(c1ccc(F)cc1)c1ccc(F)cc1)C2 [Compound 4, Bis(4-fluorophenyl)methyl (1R,5S)-8-methyl-3,8-diazabicyclo[3.2.1]octane-3 carboxylate] | – | 850 ± 39.8 | 142 ± 24.2 | – | – | 3.28 ± 0.03 | – | 16.5 ± 2.8 | 19.6 ± 5.5 | 41.8 ± 14.8 | – | – | – | –
5 | CN1CC2(CCN(C(=O)OC(c3ccc(F)cc3)c3ccc(F)cc3)C2)C1 [Compound 5, Bis(4-fluorophenyl)methyl 2-methyl-2,6-diazaspiro[3.4]octane-6-carboxylate] | 24.9 ± 6.2 | > 1000 | 165 ± 37.5 | 150 ± 52.9 | 231 ± 25.7 | 2.69 ± 0.01 | – | – | – | – | >40 | 6.6 | 6.0 | 9 fold and 9.3 fold

From PMC8879200, “Design, Synthesis, and Biological Evaluation of 4,4’-Difluorobenzhydrol Carbamates as Selective M1 Antagonists” (Pharmaceuticals, 2022)
